Experimental data from patent US20230107642A1 (Erasca, Inc., priority 2020, published 2023).

Target: T1, K-Ras G12C (Homo sapiens, UniProt P01116, G12C)
T1 construct: This protein contained 188 amino acids in total, including an N-terminal 6-Histidine tag; made in house; host or cells: E. coli BL21
Experiment: CAF assay (% CAF; method in Example 7, not in this part)
Type: binding
Settings: 10 uM compound, 1 h incubation

First: C=CC(=O)N1[C@H](C)CN(c2nc(=O)n3c4c(c(-c5cc(Cl)c(F)cc5F)c(C(F)(F)F)cc24)SC[C@@H]3COCOC)C[C@@H]1C [Example 567, (3S)-7-((3S,5R)-4-acryloyl-3,5-dimethylpiperazin-1-yl)-10-(5-chloro-2,4-difluorophenyl)-3-((methoxymethoxy)methyl)-9-(trifluoromethyl)-2H-[1,4]thiazino[2,3,4-ij]quinazolin-5(3H)-one]
Second: C=CC(=O)N1[C@H](C)CN(c2nc(=O)n3c4c(c(-c5cc(Cl)c(F)cc5F)c(C(F)(F)F)cc24)SC[C@@H]3CO)C[C@@H]1C [Example 568, (3S)-7-((3S,5R)-4-acryloyl-3,5-dimethylpiperazin-1-yl)-10-(5-chloro-2,4-difluorophenyl)-3-(hydroxymethyl)-9-(trifluoromethyl)-2H-[1,4]thiazino[2,3,4-ij]quinazolin-5(3H)-one]
The “% CAF @ 10 uM, 1h” value of the first is higher: 64.4% for the first, 52.3% for the second.

Compared with C=CC(=O)N1C2CC(=O)CC1CN(c1nc(=O)n3c4c(c(-c5ccc(F)cc5F)c(C(F)(F)F)cc14)SC[C@@H]3COC)C2 [Example 571, (3S)-7-(9-acryloyl-7-oxo-3,9-diazabicyclo[3.3.1]nonan-3-yl)-10-(2,4-difluorophenyl)-3-(methoxymethyl)-9-(trifluoromethyl)-2H-[1,4]thiazino[2,3,4-ij]quinazolin-5(3H)-one], C=CC(=O)N1CCN(c2nc(=O)n3c4c(c(-c5cc(Cl)c(F)cc5F)c(C(F)(F)F)cc24)SC[C@@H]3COC)CC1 [Example 572, (3S)-7-(4-acryloylpiperazin-1-yl)-10-(5-chloro-2,4-difluorophenyl)-3-(methoxymethyl)-9-(trifluoromethyl)-2H-[1,4]thiazino[2,3,4-ij]quinazolin-5(3H)-one] is lower in “% CAF @ 10 uM, 1h” value: 95.2% for the first, 93.6% for the second.

Going from C=CC(=O)N1C[C@H](C)N(c2nc(=O)n3c4c(c(-c5ccc(F)cc5)c(Cl)cc24)SC[C@@H]3COC)C[C@H]1C [Example 573, (S)-7-((2S,5R)-4-acryloyl-2,5-dimethylpiperazin-1-yl)-9-chloro-10-(4-fluorophenyl)-3-(methoxymethyl)-2H-[1,4]thiazino[2,3,4-ij]quinazolin-5(3H)-one] to C=CC(=O)N1C[C@H](C)N(c2nc(=O)n3c4c(c(-c5ccc(F)cc5)c(C(F)(F)F)cc24)SC[C@@H]3CN2CCN(CC(F)F)CC2)C[C@H]1C [Example 574, (S)-7-((2S,5R)-4-acryloyl-2,5-dimethylpiperazin-1-yl)-3-((4-(2,2-difluoroethyl)piperazin-1-yl)methyl)-10-(4-fluorophenyl)-9-(trifluoromethyl)-2H-[1,4]thiazino[2,3,4-ij]quinazolin-5(3H)-one], the “% CAF @ 10 uM, 1h” value rises from 76.4% to 83.2%.

First: C=CC(=O)N1C[C@H](C)N(c2nc(=O)n3c4c(c(-c5ccc(F)cc5F)c(C(F)(F)F)cc24)SC[C@@H]3CN2CCN(CC(N)=O)CC2)C[C@H]1C [Example 575, 2-(4-(((3S)-7-((2S,5R)-4-acryloyl-2,5-dimethylpiperazin-1-yl)-10-(2,4-difluorophenyl)-5-oxo-9-(trifluoromethyl)-3,5-dihydro-2H-[1,4]thiazino[2,3,4-ij]quinazolin-3-yl)methyl)piperazin-1-yl)acetamide]
Second: C=CC(=O)N1C[C@H](C)N(c2nc(=O)n3c4c(c(-c5ccc(F)cc5F)c(C(F)(F)F)cc24)SCC2(COC2)C3)C[C@H]1C [Example 588, 8′-((2S,5R)-4-Acryloyl-2,5-dimethylpiperazin-1-yl)-11′-(2,4-difluorophenyl)-10′-(trifluoromethyl)-2′H,4′H,6′H-spiro[oxetane-3,3′-[1,4]thiazepino[2,3,4-ij]quinazolin]-6′-one]
The “% CAF @ 10 uM, 1h” value of the first is lower: 89.5% for the first, 95.9% for the second.

Going from C=CC(=O)N1CCN(c2nc(=O)n3c4c(c(-c5cc(Cl)c(F)cc5F)c(C(F)(F)F)cc24)SC[C@@H](OC)C3)CC1 [Example 582, (3S)-8-(4-acryloylpiperazin-1-yl)-11-(5-chloro-2,4-difluorophenyl)-3-methoxy-10-(trifluoromethyl)-3,4-dihydro-2H,6H-[1,4]thiazepino[2,3,4-ij]quinazolin-6-one] to C=CC(=O)N1CCN(c2nc(=O)n3c4c(c(-c5cc(Cl)c(F)cc5F)c(C(F)(F)F)cc24)SC[C@@H](OC)C3)[C@@H](C)C1 [Example 583, (3S)-8-((S)-4-acryloyl-2-methylpiperazin-1-yl)-11-(5-chloro-2,4-difluorophenyl)-3-methoxy-10-(trifluoromethyl)-3,4-dihydro-2H,6H-[1,4]thiazepino[2,3,4-ij]quinazolin-6-one], the “% CAF @ 10 uM, 1h” value rises from 88% to 91%.

C=CC(=O)N1[C@H](C)CN(c2nc(=O)n3c4c(c(-c5ccc(F)cc5)c(C(F)(F)F)cc24)SC[C@H](OC)C3)C[C@@H]1C [Example 584, (R)-8-((3S,5R)-4-acryloyl-3,5-dimethylpiperazin-1-yl)-11-(4-fluorophenyl)-3-methoxy-10-(trifluoromethyl)-3,4-dihydro-2H,6H-[1,4]thiazepino[2,3,4-ij]quinazolin-6-one] and C=CC(=O)N1[C@H](C)CN(c2nc(=O)n3c4c(c(-c5ccc(F)cc5)c(C(F)(F)F)cc24)SC[C@@H](OC)C3)C[C@@H]1C [Example 585, (S)-8-((3S,5R)-4-acryloyl-3,5-dimethylpiperazin-1-yl)-11-(4-fluorophenyl)-3-methoxy-10-(trifluoromethyl)-3,4-dihydro-2H,6H-[1,4]thiazepino[2,3,4-ij]quinazolin-6-one] are the same in “% CAF @ 10 uM, 1h” value: 97% for the first, 97% for the second.

Compared with C=CC(=O)N1[C@H](C)CN(c2nc(=O)n3c4c(c(-c5ccc(F)cc5F)c(C(F)(F)F)cc24)SC[C@H](N(C)C)C3)C[C@@H]1C [Example 586, (3R)-8-((3S,5R)-4-acryloyl-3,5-dimethylpiperazin-1-yl)-11-(2,4-difluorophenyl)-3-(dimethylamino)-10-(trifluoromethyl)-3,4-dihydro-2H,6H-[1,4]thiazepino[2,3,4-ij]quinazolin-6-one], C=CC(=O)N1[C@H](C)CN(c2nc(=O)n3c4c(c(-c5cc(Cl)c(F)cc5F)c(C(F)(F)F)cc24)SC[C@@H]3CN(C)C)C[C@@H]1C [Example 587, (3S)-7-((3S,5R)-4-acryloyl-3,5-dimethylpiperazin-1-yl)-10-(5-chloro-2,4-difluorophenyl)-3-((dimethylamino)methyl)-9-(trifluoromethyl)-2H-[1,4]thiazino[2,3,4-ij]quinazolin-5(3H)-one] is higher in “% CAF @ 10 uM, 1h” value: 40% for the first, 58.9% for the second.

With [2H]C1([2H])N(C(=O)C=C)C([2H])([2H])C([2H])([2H])N(c2nc(=O)n3c4c(c(-c5ccc(F)cc5F)c(C(F)(F)F)cc24)SCC2(COC2)C3)C1([2H])[2H] [Example 589, 8′-(4-Acryloylpiperazin-1-yl-2,2,3,3,5,5,6,6-d8)-11′-(2,4-difluorophenyl)-10′-(trifluoromethyl)-2′H,4′H,6′H-spiro[oxetane-3,3′-[1,4]thiazepino[2,3,4-ij]quinazolin]-6′-one] the “% CAF @ 10 uM, 1h” value was 92.9%.

Target: T2, Cys12 of the KRAS 4B G12C protein (Homo sapiens, UniProt P01116, G12C)
T2 construct: This protein contained 188 amino acids in total, including an N-terminal 6-Histidine tag; made in house; host or cells: E. coli BL21
Experiment: In vitro covalent adduct formation (CAF) assay, LC-MS intact mass
Type: binding
Settings: 10 uM compound, 60 min incubation
Protocol: This Example provides a protocol for assessing covalent adduct formation (CAF) between the compounds of the present application and KRAS.
In vitro covalent adduct formation assay: Covalent adduct formation (CAF) reactions between Cys12 of the KRAS 4B G12C protein and some of the compounds of Tables 1 to 4 were measured in vitro using liquid chromatography-mass spectrometry (LC-MS).
Recombinant Human KRAS 4B protein containing the G12C mutation was used in compound screening experiments. This protein contained 188 amino acids in total, including an N-terminal 6-Histidine tag, followed by a Tobacco Etch Virus (TEV) tag, followed by residues 1-169 of the native KRAS 4B sequence. The exact mass of the protein was 21,310 Da as determined by mass spectrometry. The full amino acid sequence is shown below: […]
The recombinant protein was expressed in E. coli BL21 cells and purified using affinity chromatography via a Ni-NTA column. Protein stocks were nucleotide-exchanged to >95% GDP, concentrated to 4 mg/mL, and stored at −80° C. in storage buffer (50 mM HEPES pH 7.4, 50 mM NaCl, 5 mM MgCl2, 1 mM DTT). Pure KRAS 4B G12C protein was diluted to a concentration of 5 μM in Tris Buffered Saline, pH 7.4. The compounds were dissolved in DMSO and added to the diluted protein to make a 10 μM concentration. The total DMSO concentration in the reaction was 4%. The reaction was mixed by pipetting and incubated at 22° C. for one hour. Aliquots of the reaction were taken over time and diluted 2:1 in 0.1% formic acid. The intact mass of the protein samples was measured by LC-MS using a QExactive+ mass spectrometer (Thermo Scientific). An amount of 500 ng total protein was injected onto a C8 reverse phase column, eluted with a seven-minute gradient of 30%-90% acetonitrile/0.1% formic acid, and analyzed for intact mass by the mass spectrometer. Adducts identified were confirmed to be within 1 Dalton of the expected mass, and the relative ratios of free:adduct protein were used to quantify the percentage of protein bound by the compound. CAF reactions were run in duplicate, with a typical variability of ±5%.

First: C=CC(=O)N1C[C@H](C)N(c2nc(=O)n3c4c(c(-c5cccc6cnn(C)c56)c(C(F)(F)F)cc24)SC[C@@H]3COC)C[C@H]1C (atropisomer, axis not shown) [Example 1101, (3S,10R)-7-((2S,5R)-4-acryloyl-2,5-dimethylpiperazin-1-yl)-3-(methoxymethyl)-10-(1-methyl-1H-indazol-7-yl)-9-(trifluoromethyl)-2,3-dihydro-5H-[1,4]thiazino[2,3,4-ij]quinazolin-5-one]
Second: C=CC(=O)N1CCN(c2nc(=O)n3c4c(c(-c5cc(Cl)c(F)cc5F)c(C(F)(F)F)cc24)SC[C@@H]3COC)CC1 (atropisomer, axis not shown) [Example 1107, (3S,10R)-7-(4-acryloylpiperazin-1-yl)-10-(5-chloro-2,4-difluorophenyl)-3-(methoxymethyl)-9-(trifluoromethyl)-2,3-dihydro-5H-[1,4]thiazino[2,3,4-ij]quinazolin-5-one]
The “% CAF 10 uM @ 60 min” value of the first is lower: 0% for the first, 97% for the second.

C=CC(=O)N1C[C@H](C)N(c2nc(=O)n3c4c(c(-c5cccc6cnn(C)c56)c(C(F)(F)F)cc24)SC[C@@H]3COC)C[C@H]1C (atropisomer, axis not shown) [Example 1102, (3S,10S)-7-((2S,5R)-4-acryloyl-2,5-dimethylpiperazin-1-yl)-3-(methoxymethyl)-10-(1-methyl-1H-indazol-7-yl)-9-(trifluoromethyl)-2,3-dihydro-5H-[1,4]thiazino[2,3,4-ij]quinazolin-5-one] was tested, and the “% CAF 10 uM @ 60 min” value was 94.5%.
